Data taken from US7635572B2, “Methods for conducting assays for enzyme activity on protein microarrays” (Life Technologies Corporation, priority 2004, dated 2009).
Read-outs that look alike come from different tables or passages of the source.

Assays:
Assay in all cases: Further analysis of a plurality of inhibitors and a plurality of kinases on microarray (Example IX, Table 5);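 note: inhibition of each kinase by the inhibitors is given as a qualitative level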;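 for Inhibition level, DYRK2: level 0 none or unclear Level 1 marginal Level 2 substantial inhibition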;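 for Inhibition level, FYN: level 0 no or unclear inhibition to Level 2 substantial inhibition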
Format in all cases: biochemical
[1] = target: plurality of kinases (Table 5) (Homo sapiens, UniProt O75914); conditions: plate D4
[2] = target: plurality of kinases (Table 5) (Homo sapiens, UniProt P06241)
[3] = target: T1, plurality of kinases (Table 5) (Homo sapiens, UniProt P29323); conditions: plate E5
T1 sequence (P29323 19-1055): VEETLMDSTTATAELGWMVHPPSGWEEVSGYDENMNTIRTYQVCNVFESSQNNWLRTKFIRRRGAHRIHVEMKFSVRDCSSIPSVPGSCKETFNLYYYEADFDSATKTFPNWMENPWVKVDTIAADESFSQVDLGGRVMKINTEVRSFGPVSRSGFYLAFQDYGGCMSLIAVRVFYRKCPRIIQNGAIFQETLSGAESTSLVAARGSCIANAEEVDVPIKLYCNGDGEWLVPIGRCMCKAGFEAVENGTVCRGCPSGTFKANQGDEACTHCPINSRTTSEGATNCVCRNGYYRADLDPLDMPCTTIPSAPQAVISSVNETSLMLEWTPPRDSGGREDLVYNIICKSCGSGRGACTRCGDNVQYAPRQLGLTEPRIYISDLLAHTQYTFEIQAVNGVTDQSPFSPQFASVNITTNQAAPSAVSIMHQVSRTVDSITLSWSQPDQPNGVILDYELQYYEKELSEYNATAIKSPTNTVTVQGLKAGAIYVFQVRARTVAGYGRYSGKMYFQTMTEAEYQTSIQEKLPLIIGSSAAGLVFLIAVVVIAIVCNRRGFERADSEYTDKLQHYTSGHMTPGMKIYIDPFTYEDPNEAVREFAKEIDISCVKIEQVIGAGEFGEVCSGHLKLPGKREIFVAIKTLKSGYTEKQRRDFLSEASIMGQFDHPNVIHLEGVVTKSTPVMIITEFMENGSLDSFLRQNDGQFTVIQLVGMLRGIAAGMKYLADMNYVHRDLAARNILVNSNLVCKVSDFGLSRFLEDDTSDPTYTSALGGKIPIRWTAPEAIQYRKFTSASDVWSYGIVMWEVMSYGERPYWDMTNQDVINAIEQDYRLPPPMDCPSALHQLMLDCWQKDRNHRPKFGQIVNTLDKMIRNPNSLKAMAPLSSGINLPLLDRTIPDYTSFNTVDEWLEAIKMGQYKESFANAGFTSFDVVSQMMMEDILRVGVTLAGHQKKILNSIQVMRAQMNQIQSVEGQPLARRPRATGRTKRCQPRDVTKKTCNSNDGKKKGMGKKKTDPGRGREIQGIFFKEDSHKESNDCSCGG

[4] = target: T2, plurality of kinases (Table 5) (Homo sapiens, UniProt P51813); conditions: plate B12; inhibitor 100 uM
T2 sequence (P51813 1-675): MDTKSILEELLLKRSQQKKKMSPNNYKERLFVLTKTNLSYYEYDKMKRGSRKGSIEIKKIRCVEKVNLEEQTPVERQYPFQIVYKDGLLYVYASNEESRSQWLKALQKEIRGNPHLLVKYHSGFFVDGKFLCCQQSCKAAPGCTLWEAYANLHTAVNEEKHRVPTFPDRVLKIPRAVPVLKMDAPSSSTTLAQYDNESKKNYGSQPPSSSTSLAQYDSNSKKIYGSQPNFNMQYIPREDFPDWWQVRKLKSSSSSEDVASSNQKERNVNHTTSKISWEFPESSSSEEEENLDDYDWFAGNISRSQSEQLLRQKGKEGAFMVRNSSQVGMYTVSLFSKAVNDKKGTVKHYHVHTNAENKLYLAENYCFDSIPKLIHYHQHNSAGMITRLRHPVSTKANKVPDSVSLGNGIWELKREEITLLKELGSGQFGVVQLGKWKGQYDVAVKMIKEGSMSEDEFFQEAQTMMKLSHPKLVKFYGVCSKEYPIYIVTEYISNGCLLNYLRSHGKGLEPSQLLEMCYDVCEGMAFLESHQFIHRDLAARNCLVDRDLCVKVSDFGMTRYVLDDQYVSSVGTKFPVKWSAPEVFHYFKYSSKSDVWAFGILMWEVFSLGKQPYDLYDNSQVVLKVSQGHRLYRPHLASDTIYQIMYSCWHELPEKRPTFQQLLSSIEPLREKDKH

[5] = target: T3, plurality of kinases (Table 5) (Homo sapiens, UniProt Q92630); conditions: plate D11
T3 sequence (Q92630 1-601): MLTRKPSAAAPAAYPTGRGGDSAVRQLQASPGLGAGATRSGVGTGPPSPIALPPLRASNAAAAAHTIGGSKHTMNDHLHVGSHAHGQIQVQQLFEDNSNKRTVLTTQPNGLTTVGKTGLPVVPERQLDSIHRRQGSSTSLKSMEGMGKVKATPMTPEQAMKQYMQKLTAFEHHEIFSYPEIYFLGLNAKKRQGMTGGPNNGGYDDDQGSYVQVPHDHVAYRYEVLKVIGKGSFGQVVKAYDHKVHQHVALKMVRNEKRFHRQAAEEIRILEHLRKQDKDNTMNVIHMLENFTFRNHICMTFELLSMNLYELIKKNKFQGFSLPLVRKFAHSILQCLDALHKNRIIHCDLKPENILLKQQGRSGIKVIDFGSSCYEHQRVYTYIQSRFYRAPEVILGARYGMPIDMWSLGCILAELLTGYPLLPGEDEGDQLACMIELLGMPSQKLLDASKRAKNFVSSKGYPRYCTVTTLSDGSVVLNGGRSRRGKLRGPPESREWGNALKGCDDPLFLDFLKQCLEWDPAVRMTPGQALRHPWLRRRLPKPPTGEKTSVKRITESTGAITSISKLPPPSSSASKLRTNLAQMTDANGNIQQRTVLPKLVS

[6] = target: T4, plurality of kinases (Table 5) (Homo sapiens, UniProt Q96KB5); conditions: plate G7
T4 sequence (Q96KB5 1-322): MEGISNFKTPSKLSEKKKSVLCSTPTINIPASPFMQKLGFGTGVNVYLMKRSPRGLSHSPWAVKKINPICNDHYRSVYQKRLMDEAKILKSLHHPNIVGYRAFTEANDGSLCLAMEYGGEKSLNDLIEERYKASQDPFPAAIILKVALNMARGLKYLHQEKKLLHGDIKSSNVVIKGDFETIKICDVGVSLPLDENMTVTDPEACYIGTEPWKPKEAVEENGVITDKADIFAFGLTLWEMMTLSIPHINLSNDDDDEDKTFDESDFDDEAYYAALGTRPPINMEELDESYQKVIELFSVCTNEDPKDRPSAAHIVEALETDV

[7] = plate A4, Domain 0, inhibitor 100 uM

plurality of kinases (Table 5) (Homo sapiens, UniProt P06241), sequence (P06241 whole entry): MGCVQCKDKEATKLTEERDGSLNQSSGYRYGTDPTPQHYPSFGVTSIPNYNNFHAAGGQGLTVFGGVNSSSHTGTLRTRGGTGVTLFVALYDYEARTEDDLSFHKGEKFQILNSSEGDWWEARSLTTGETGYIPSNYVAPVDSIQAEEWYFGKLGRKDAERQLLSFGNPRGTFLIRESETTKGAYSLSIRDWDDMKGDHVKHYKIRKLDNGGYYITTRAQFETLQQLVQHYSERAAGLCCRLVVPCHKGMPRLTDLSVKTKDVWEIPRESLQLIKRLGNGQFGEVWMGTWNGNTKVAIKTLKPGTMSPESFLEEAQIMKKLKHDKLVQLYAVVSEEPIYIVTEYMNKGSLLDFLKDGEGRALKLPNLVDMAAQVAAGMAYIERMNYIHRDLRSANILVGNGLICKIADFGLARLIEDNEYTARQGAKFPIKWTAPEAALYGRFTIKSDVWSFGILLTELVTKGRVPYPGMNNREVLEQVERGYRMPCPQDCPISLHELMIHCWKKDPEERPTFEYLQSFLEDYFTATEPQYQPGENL
plurality of kinases (Table 5) (Homo sapiens, UniProt O75914), sequence (O75914 whole entry): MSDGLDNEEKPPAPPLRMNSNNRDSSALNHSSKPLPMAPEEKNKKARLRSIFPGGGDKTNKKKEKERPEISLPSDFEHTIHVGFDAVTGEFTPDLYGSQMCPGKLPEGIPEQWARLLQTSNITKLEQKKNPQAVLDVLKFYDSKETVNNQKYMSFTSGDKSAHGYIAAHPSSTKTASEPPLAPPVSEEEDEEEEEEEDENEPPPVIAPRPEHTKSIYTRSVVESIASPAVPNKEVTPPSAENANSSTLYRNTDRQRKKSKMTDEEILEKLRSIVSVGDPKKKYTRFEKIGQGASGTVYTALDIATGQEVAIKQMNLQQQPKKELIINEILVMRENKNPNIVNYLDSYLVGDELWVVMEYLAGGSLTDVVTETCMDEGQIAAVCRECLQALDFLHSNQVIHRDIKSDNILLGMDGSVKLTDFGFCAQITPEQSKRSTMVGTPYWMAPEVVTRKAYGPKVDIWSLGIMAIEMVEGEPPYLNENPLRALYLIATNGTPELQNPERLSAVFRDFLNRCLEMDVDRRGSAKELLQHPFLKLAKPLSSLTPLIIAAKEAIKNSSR

Row | Inhibition level, PAK3 ([1]; Genistein, conc. not given) | Inhibition level, FYN ([2]; plate A4, Domain 0, Genistein <3.7 mM) | Inhibition level, EPHB2 ([3]; Genistein <3.7 mM) | Inhibition level, DYRK2 ([5]; Genistein, conc. not given) | Inhibition level, TOPK ([6]; Genistein <3.7 mM) | Inhibition level, PAK3 ([1]; Ro-31-8220, conc. not given) | Inhibition level, FYN ([2]; plate A4, Domain 0, Ro-31-8220 90 uM) | Inhibition level, EPHB2 ([3]; Ro-31-8220 90 uM) | Inhibition level, DYRK2 ([5]; Ro-31-8220, conc. not given) | Inhibition level, TOPK ([6]; Ro-31-8220 90 uM) | Structure (SMILES) | Inhibition level, PAK3 ([1]; inhibitor 100 uM) | Inhibition level, FYN [2, 7] | Inhibition level, EPHB2 ([3]; inhibitor 100 uM) | Inhibition level, BMX [4] | Inhibition level, DYRK2 ([5]; inhibitor 100 uM) | Inhibition level, TOPK ([6]; inhibitor 100 uM) | Inhibition level, FYN [2] | Inhibition level, TOPK ([6]; Staurosporine 21.5 uM)
1 |  |  |  |  |  |  |  |  |  |  | N#C/C(=C/c1ccc(O)c(O)c1)C(=O)NCc1ccccc1 [AG 490] | 1 | 2 | 2 | 0 | 2 | 2 |  | 
2 |  |  |  |  |  |  |  |  |  |  | COc1cc2ncnc(Nc3cccc(Cl)c3)c2cc1OC [AG 1478] | 2 | 2 | 2 | 1 | 2 | 1 |  | 
3 | 0 | 1 | 0 | 1 | 0 |  |  |  |  |  | O=c1c(-c2ccc(O)cc2)coc2cc(O)cc(O)c12 [Genistein] | 2 | 2 | 2 | 0 | 2 | 2 |  | 
4 |  |  |  |  |  |  |  |  |  |  | O=S(=O)(NCCNC/C=C/c1ccc(Br)cc1)c1cccc2cnccc12 [H-89] | 2 | 2 | 2 | 1 | 2 | 2 |  | 
5 |  |  |  |  |  |  |  |  |  |  | CC(C)(C)n1nc(-c2ccc(Cl)cc2)c2c(N)ncnc21 [PP2] | 2 |  | 2 | 2 | 2 | 2 |  | 
6 |  |  |  |  |  |  |  |  |  |  | O=c1c(O)c(-c2ccc(O)c(O)c2)oc2cc(O)cc(O)c12 [Quercetin] | 2 |  | 2 | 0 | 2 | 0 |  | 
7 |  |  |  |  |  | 2 | 0 | 0 | 0 | 2 | Cn1cc(C2=C(c3cn(CCCSC(=N)N)c4ccccc34)C(=O)NC2=O)c2ccccc21 [Ro-31-8220] | 2 | 2 | 2 | 2 | 2 | 0 |  | 
8 |  |  |  |  |  |  |  |  |  |  | CC(=O)c1c(O)c(C)c(O)c(Cc2c(O)c3c(c(C(=O)/C=C/c4ccccc4)c2O)OC(C)(C)C=C3)c1O [Rottlerin (Mallotoxin)] | 0 | 2 | 2 | 1 | 2 | 2 |  | 
9 |  |  |  |  |  |  |  |  |  |  | CN[C@@H]1C[C@H]2O[C@@](C)([C@@H]1OC)n1c3ccccc3c3c4c(c5c6ccccc6n2c5c31)C(=O)NC4 [Staurosporine] |  |  |  |  |  |  | 2 | 2
